Data: patent publication US9751861B2, “N1-(3,3,3-trifluoro-2-hydroxo-2-methylpropionyl)-piperidine derivatives as inhibitors of pyruvate dehydrogenase kinase” (MERCK PATENT GMBH, priority 2013, dated 2017)

Key:
PDHK2 = biological target: T1, PDHK2 (Homo sapiens, UniProt Q15119); assay: Biochemical activity testing of PDHK2: PDC inactivation assay; details: human rec PDHK2, PDC from porcine heart, ATP 5 μM; read-out: IC50 PDHK2 (enzyme assay)
T1 construct: purchased Carna Bioscience
Outline: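 Human recombinant PDHK2 (137 nM final) preincubated 30 min at RT with porcine heart PDC (20 mU/ml) and compound in pH 7.0 phosphate buffer, then phosphorylated with 5 μM ATP for 30 min at 37 °C. Residual PDC activity read as NADH fluorescence increase (Ex 340/Em 450) over 45 min; inhibitor-free reaction as full value, 3 mM DCA as zero, IC50 derived.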

human PDHK2 (12-407) = biological target: T2, human PDHK2 (12-407) (Homo sapiens, UniProt Q15119); assay: Isothermal titration calorimetry (ITC) binding; details: 30° C., pH 7.5
T2 construct: The human PDHK2 (12-407) was produced in E. coli; His-tag (cleaved yes); made in house; host or cells: E. coli
Outline: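 Untagged PDHK2 (12-407) from E. coli at 50 μM titrated into 5 μM compound at 30° C in pH 7.5 HEPES/KCl/MgCl2/phosphate buffer, ≤1% DMSO. One-site fit gave KA, ΔH^obs and N after heat-of-dilution correction; protein concentration referenced to a standard inhibitor and compound concentration adjusted to 1:1 stoichiometry.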

PDH-Elalpha (pSer300) = assay: Cellular immunofluorescence assay in HEK293T cells; type: cell-based; details: Homo sapiens, HEK-293T, 5 hours incubation, anti-PDH-E1alpha pSer300 immunofluorescence, read-out: IC50 (cell data)
Protocol: Cellular Assay for Determination of Compound Activities
Compound activities were determined in a cellular immunofluorescence assay. Human HEK293T cells were seeded into black 384-well plates with clear bottom and grown overnight.
Next day, test compounds were added to the wells and the plates incubated for 5 hours. Following this, cells were fixed with formaldehyde, permeabilised and blocked. The primary antibody, Anti-PDH-Elalpha (pSer300), AP1064 (Merck Millipore) was added and incubated overnight in the plate wells. Next, cells were washed and the seconday antibody, Alexa Fluor 488, goat anti-rabbit ab (A-11008, Invitrogen) was added together with Hoechst 33258 (H3569, Invitrogen) and incubated for 1 hour in the plate wells. Finally, cells were washed and the plates were measured on the laser scanning cytometer acumen hci (TTpLabtech).
The raw data were normalized against a pharmacological inhibitor control and dose response curves were generated by plotting the percent effect values using the software package Genedata screener (Genedata).

## COc1ccc(-n2nccc2C2CCN(C(=O)[C@@](C)(O)C(F)(F)F)CC2)cc1Cl [Compound A48, (R)-3,3,3-Trifluoro-2-hydroxy-1-{4-[2-(3-chloro-4-methoxy-phenyl)-2H-pyrazol-3-yl]-piperidin-1-yl}-2-methyl-propan-1-one]
PDHK2
  IC50: < 300 nM
Human PDHK2 (12-407)
  Kd: < 300 nM
PDH-Elalpha (pSer300)
  IC50: 300 to 3000 nM

## C[C@@](O)(C(=O)N1CCC(c2ccnn2-c2ccc(OCC(F)(F)F)cc2)CC1)C(F)(F)F [Compound A49, (R)-3,3,3-Trifluoro-2-hydroxy-2-methyl-1-(4-{2-[4-(2,2,2-trifluoro-ethoxy)phenyl]-2H-pyrazol-3-yl}-piperidin-1-yl)-propan-1-one]
PDHK2
  IC50: < 300 nM
Human PDHK2 (12-407)
  Kd: < 300 nM
PDH-Elalpha (pSer300)
  IC50: 300 to 3000 nM

## COc1ccc(-n2nccc2C2CCN(C(=O)[C@@](C)(O)C(F)(F)F)CC2)cn1 [Compound A53, (R)-3,3,3-Trifluoro-2-hydroxy-1-{4-[2-(6-methoxy-pyridin-3-yl)-2H-pyrazol-3-yl]-piperidin-1-yl}-2-methyl-propan-1-one]
PDHK2
  IC50: 300 to 3000 nM
Human PDHK2 (12-407)
  Kd: < 300 nM
PDH-Elalpha (pSer300)
  IC50: 300 to 3000 nM

## C[C@@](O)(C(=O)N1CCC(n2c(-c3ccccc3F)n[nH]c2=O)CC1)C(F)(F)F [Compound A54, 5-(2-Fluoro-phenyl)-4-[1-((R)-3,3,3-trifluoro-2-hydroxy-2-methyl-propionyl)piperidin-4-yl]-2,4-dihydro-[1,2,4]triazol-3-one]
PDHK2
  IC50: 300 to 3000 nM
Human PDHK2 (12-407)
  Kd: 300 to 3000 nM
PDH-Elalpha (pSer300)
  IC50: 3000 to 50000 nM

## C[C@@](O)(C(=O)N1CCC(n2cnnc2-c2ccccc2F)CC1)C(F)(F)F [Compound A55, (R)-3,3,3-Trifluoro-1-{4-[3-(2-fluoro-phenyl)-[1,2,4]triazol-4-yl]-piperidin-1-yl}-2-hydroxy-2-methyl-propan-1-one]
PDHK2
  IC50: 300 to 3000 nM
Human PDHK2 (12-407)
  Kd: 300 to 3000 nM
PDH-Elalpha (pSer300)
  IC50: 3000 to 50000 nM

## COc1ccc(-n2nncc2C2CCN(C(=O)[C@@](C)(O)C(F)(F)F)CC2)cc1 [Compound A57, (R)-3,3,3-Trifluoro-2-hydroxy-1-{4-[3-(4-methoxy-phenyl)-3H-[1,2,3]triazol-4-yl]-piperidin-1-yl}-2-methyl-propan-1-one]
PDHK2
  IC50: 300 to 3000 nM
Human PDHK2 (12-407)
  Kd: 300 to 3000 nM
PDH-Elalpha (pSer300)
  IC50: 3000 to 50000 nM

## C[C@@](O)(C(=O)N1CCC(n2ccnc2-c2ccccc2)CC1)C(F)(F)F [Compound A61, (R)-3,3,3-Trifluoro-2-hydroxy-2-methyl-1-[4-(2-phenyl-imidazol-1-yl)-piperidin-1-yl]-propan-1-one]
PDHK2
  IC50: < 300 nM
Human PDHK2 (12-407)
  Kd: < 300 nM
PDH-Elalpha (pSer300)
  IC50: 3000 to 50000 nM

## C[C@@](O)(C(=O)N1CCC(n2ccnc2-c2ccc(Cl)cc2)CC1)C(F)(F)F [Compound A62, (R)-1-{4-[2-(4-Chloro-phenyl)-imidazol-1-yl]-piperidin-1-yl}-3,3,3-trifluoro-2-hydroxy-2-methyl-propan-1-one]
PDHK2
  IC50: < 300 nM
Human PDHK2 (12-407)
  Kd: < 300 nM
PDH-Elalpha (pSer300)
  IC50: 300 to 3000 nM

## C[C@@](O)(C(=O)N1CCC(n2cncc2-c2ccccc2)CC1)C(F)(F)F [Compound A63, (2R)-3,3,3-trifluoro-2-hydroxy-2-methyl-1-[4-(5-phenylimidazol-1-yl)-1-piperidyl]propan-1-one]
PDHK2
  IC50: 300 to 3000 nM
Human PDHK2 (12-407)
  Kd: < 300 nM
PDH-Elalpha (pSer300)
  IC50: 3000 to 50000 nM

## C[C@@](O)(C(=O)N1CCC(n2cncc2-c2ccc(Cl)cc2)CC1)C(F)(F)F [Compound A64, (2R)-1-[4-[5-(4-chlorophenyl)imidazol-1-yl]-1-piperidyl]-3,3,3-trifluoro-2-hydroxy-2-methyl-propan-1-one]
PDHK2
  IC50: < 300 nM
Human PDHK2 (12-407)
  Kd: < 300 nM
PDH-Elalpha (pSer300)
  IC50: 300 to 3000 nM

## C[C@@](O)(C(=O)N1CCC(c2cncn2-c2ccccc2)CC1)C(F)(F)F [Compound A65, (R)-3,3,3-Trifluoro-2-hydroxy-2-methyl-1-[4-(3-phenyl-3H-imidazol-4-yl)piperidin-1-yl]-propan-1-one]
PDHK2
  IC50: 300 to 3000 nM
Human PDHK2 (12-407)
  Kd: < 300 nM
PDH-Elalpha (pSer300)
  IC50: 300 to 3000 nM

## C[C@@](O)(C(=O)N1CCC(c2ccnn2CC(F)(F)F)CC1)C(F)(F)F [Compound A77, (R)-3,3,3-Trifluoro-2-hydroxy-2-methyl-1-{4-[2-(2,2,2-trifluoro-ethyl)-2H-pyrazol-3-yl]-piperidin-1-yl}-propan-1-one]
PDHK2
  IC50: 3000 to 50000 nM
Human PDHK2 (12-407)
  Kd: 300 to 3000 nM
PDH-Elalpha (pSer300)
  IC50: 3000 to 50000 nM

## COCCn1nccc1C1CCN(C(=O)[C@@](C)(O)C(F)(F)F)CC1 [Compound A78, (R)-3,3,3-Trifluoro-2-hydroxy-1-[4-[2-(2-methoxyethyl)-2H-pyrazol-3-yl]-1-piperidyl]-2-methyl-propan-1-one]
PDHK2
  IC50: 300 to 3000 nM
Human PDHK2 (12-407)
  Kd: < 300 nM
PDH-Elalpha (pSer300)
  IC50: 3000 to 50000 nM

## C[C@@](O)(C(=O)N1CCC(c2ccnn2-c2ccc(C(F)(F)F)nc2)CC1)C(F)(F)F [Compound A80, (R)-3,3,3-Trifluoro-2-hydroxy-2-methyl-1-[4-[2-[6-(trifluoromethyl)-3-pyridyl]-2H-pyrazol-3-yl]-1-piperidyl]propan-1-one]
PDHK2
  IC50: 300 to 3000 nM
Human PDHK2 (12-407)
  Kd: < 300 nM
PDH-Elalpha (pSer300)
  IC50: 3000 to 50000 nM

## C[C@@](O)(C(=O)N1CCC(c2ccnn2-c2ncc(F)cc2F)CC1)C(F)(F)F [Compound A82, (R)-1-[4-[2-(3,5-Difluoro-2-pyridyl)-2H-pyrazol-3-yl]-1-piperidyl]-3,3,3-trifluoro-2-hydroxy-2-methyl-propan-1-one]
PDHK2
  IC50: < 300 nM
Human PDHK2 (12-407)
  Kd: < 300 nM
PDH-Elalpha (pSer300)
  IC50: 300 to 3000 nM

## Cc1ccc(-n2nccc2C2CCN(C(=O)[C@@](C)(O)C(F)(F)F)CC2)nc1 [Compound A83, (R)-3,3,3-Trifluoro-2-hydroxy-2-methyl-1-{4-[2-(5-methyl-pyridin-2-yl)-2H-pyrazol-3-yl]-piperidin-1-yl}-propan-1-one]
PDHK2
  IC50: 300 to 3000 nM
Human PDHK2 (12-407)
  Kd: < 300 nM
PDH-Elalpha (pSer300)
  IC50: 300 to 3000 nM

## Cn1cc(-n2nccc2C2CCN(C(=O)[C@@](C)(O)C(F)(F)F)CC2)cn1 [Compound A85, (R)-3,3,3-Trifluoro-2-hydroxy-2-methyl-1-[4-[2-(1-methylpyrazol-4-yl)-2H-pyrazol-3-yl]-1-piperidyl]propan-1-one]
PDHK2
  IC50: 300 to 3000 nM
Human PDHK2 (12-407)
  Kd: < 300 nM
PDH-Elalpha (pSer300)
  IC50: 3000 to 50000 nM

## Cc1csc(-n2nccc2C2CCN(C(=O)[C@@](C)(O)C(F)(F)F)CC2)n1 [Compound A86, (R)-3,3,3-Trifluoro-2-hydroxy-2-methyl-1-[4-[2-(4-methylthiazol-2-yl)-2H-pyrazol-3-yl]-1-piperidyl]propan-1-one]
PDHK2
  IC50: 300 to 3000 nM
Human PDHK2 (12-407)
  Kd: < 300 nM
PDH-Elalpha (pSer300)
  IC50: 3000 to 50000 nM

## C[C@@](O)(C(=O)N1CCC(c2ccnn2-c2ccc(C(F)(F)F)cc2F)CC1)C(F)(F)F [Compound A88, (R)-3,3,3-Trifluoro-1-[4-[2-[2-fluoro-4-(trifluoromethyl)phenyl]-2H-pyrazol-3-yl]-1-piperidyl]-2-hydroxy-2-methyl-propan-1-one]
PDHK2
  IC50: 300 to 3000 nM
Human PDHK2 (12-407)
  Kd: < 300 nM
PDH-Elalpha (pSer300)
  IC50: 300 to 3000 nM

## C[C@@](O)(C(=O)N1CCC(c2ccnn2-c2ccc(C#N)cc2F)CC1)C(F)(F)F [Compound A91, 3-Fluoro-4-[5-[1-[(R)-3,3,3-trifuoro-2-hydroxy-2-methyl-propanoyl]-4-piperidyl]-2H-pyrazol-1-yl]benzonitrile]
PDHK2
  IC50: 300 to 3000 nM
Human PDHK2 (12-407)
  Kd: < 300 nM
PDH-Elalpha (pSer300)
  IC50: 3000 to 50000 nM

## CC(C)(O)c1ccc(-n2nccc2C2CCN(C(=O)[C@@](C)(O)C(F)(F)F)CC2)c(F)c1 [Compound A92, (R)-3,3,3-Trifluoro-1-[4-[2-[2-fluoro-4-(1-hydroxy-1-methyl-ethyl)phenyl]-2H-pyrazol-3-yl]-1-piperidyl]-2-hydroxy-2-methyl-propan-1-one]
PDHK2
  IC50: 300 to 3000 nM
Human PDHK2 (12-407)
  Kd: < 300 nM
PDH-Elalpha (pSer300)
  IC50: 300 to 3000 nM

## C[C@@](O)(C(=O)N1CCC(c2ccnn2[C@H]2CC[C@H](O)CC2)CC1)C(F)(F)F [Compound A94, (R)-3,3,3-Trifluoro-2-hydroxy-1-[4-[2-(4-hydroxycyclohexyl)-2H-pyrazol-3-yl]-1-piperidyl]-2-methyl-propan-1-one]
PDHK2
  IC50: 300 to 3000 nM
Human PDHK2 (12-407)
  Kd: < 300 nM
PDH-Elalpha (pSer300)
  IC50: 3000 to 50000 nM

## C[C@@](O)(C(=O)N1CCC(c2ccnn2-c2ccc(OC(F)(F)F)cc2)CC1)C(F)(F)F [Compound A95, (R)-3,3,3-Trifluoro-2-hydroxy-2-methyl-1-[4-[2-[4-(trifluoromethoxy)-phenyl]-2H-pyrazol-3-yl]-1-piperidyl]propan-1-one]
PDHK2
  IC50: < 300 nM
Human PDHK2 (12-407)
  Kd: < 300 nM
PDH-Elalpha (pSer300)
  IC50: 300 to 3000 nM

## C[C@@](O)(C(=O)N1CCC(c2ccnn2-c2ccc(OC(F)F)cc2)CC1)C(F)(F)F [Compound A96, (R)-1-[4-[2-[4-(Difluoromethoxy)phenyl]-2H-pyrazol-3-yl]-1-piperidyl]-3,3,3-trifluoro-2-hydroxy-2-methyl-propan-1-one]
PDHK2
  IC50: 300 to 3000 nM
Human PDHK2 (12-407)
  Kd: < 300 nM
PDH-Elalpha (pSer300)
  IC50: 300 to 3000 nM
